One molecule from patent US10052304B2, “Compositions and methods for cancer therapy” (UNIVERSITY OF IOWA RESEARCH FOUNDATION, priority 2015, dated 2018) can be followed below.

The subject of one series is U87 cells. Put plainly: Clonogenic survival assay, U87 GBM cells. The format is cell-based, human. The protocol:
(§1) Treatment conditions for individual experiments are as described in the figure legends and summarized in the Supplemental Experimental Procedures.
(§2) 1-2×10^5 cells were plated in 60 mm cell culture dishes and grown in their respective media for 48 h before exposed to experimental conditions. […] For AdGPx1 experiments, cells were supplemented with 50 nM sodium selenite following transduction and throughout clonogenic growth. […] After treatment, cells were washed with PBS and clonogenic assay was completed in their respective media. Briefly, floating and attached cells were collected and total cells per plate were counted. An experimentally derived number of cells were plated into each well of a 6-well cell culture plate in their respective media. For HEL92.1.7 suspension cells, cells were seeded in a top layer of 0.4% (w/v) agarose to allow for quantifiable colony formation. […] Normalized survival fractions were calculated by comparing plating efficiencies of each treatment group against the control group within a given experiment.

The subject of the next series is U118 cells. The series is described as follows: Clonogenic survival assay, U118 GBM cells. The format is cell-based, human. The method, then:
as §1, §2

In a further series the test system is U87 xenografts. The series is described as follows: GBM (U87) flank xenograft model. The format is in vivo, mice.
The next series concerns ARP1 myeloma cells. Put plainly: ARP1 myeloma tumor-bearing model, IP injection, NOD-SCID mice. The following applies: ascorbate 4 g/kg approximately 15 days, n=3. The format is in vivo. The method, then: This experiment was repeated in a tumor-bearing mouse model through IP injection of ARP1 myeloma cells, which allows a solid tumor growth when implanted in mice purpose. A total of […] ARP1 MM cells (in 50 μl PBS) per mouse were injected into NOD-SCID mice through IP.

The subject of a further series is NSCLC cells. The series is described as follows: Intracellular H2O2 with PeroxyOrange-1, NSCLC cells. The format is cell-based, human. The following applies: ascorbate 15 pmol cell^−1. The method, then:
To visualize intracellular H2O2 levels, the selectively sensitive fluorescent probe PeroxyOrange-1 was utilized as previously described with modifications (Dickinson et al., 2010). 1×10^5 cells were plated and grown in their respective media for 48 h. The complete protocol was conducted in the dark with minimal ambient lighting. Cells were washed with PBS and incubated with 10 uM PO-1 in phenol red free RPMI supplemented with HBE growth supplements for 1 h at 37° C. Cells were then washed in PBS and placed back in phenol red free RPMI supplemented with HBE growth supplements. […] At times indicated, cells were placed on ice for the remainder of the protocol, washed, and trypsinized with phenol red free 0.5% trypsin. After 15 min, cells still attached were scraped and all cells were collected in 15 mL conical vials containing PBS+10% FBS to neutralize the trypsin reaction. Cells were spun at 1200 rpm for 5 min at 4° C., resuspended in 300-500 uL PBS and were run on a LSR II Flow Cytometer (BD Biosciences) with λex=561 nm, λem=585/20 nm. The mean fluorescence intensity (MFI) was analyzed (FlowJo™) and corrected for autoflourescence against unlabeled cells. Normalized MFI was calculated by comparing MFI for a given treatment group against control.

[1] abbreviates: 1 h ascorbate + 25 μM temozolomide + 2 Gy IR.
Where [2] appears, read: ascorbate alone, increasing concentrations, 1 h.

Procedure for U87 xenografts: Female 4-6 week old female athymic-nu/nu mice were purchased from Envigo (previously Harlan Laboratories) and housed in the Animal Care Facility at the University of Iowa (Iowa City, Iowa), and all procedures were approved by the University of Iowa Institutional Animal Care and Use Committee and conformed to NIH guidelines. 1×10^6 H292 or U87 cells were injected subcutaneously into the right rear flank and mice were euthanized and sacrificed when tumor length exceeded 1.5 cm in any dimension.
1×10^6 H292 or U87 cells were injected subcutaneously into the right rear flank. […] Tumors were measured every other day with Vernier calipers (volume=(length×width×(width/2)) and mice were euthanized and sacrificed when tumor length exceeded 1.5 cm in any dimension.

For `O=C1O[C@H]([C@@H](O)CO)C(O)=C1O` [ascorbate, L-ascorbic acid], the “sensitization to temozolomide + IR (clonogenic survival)” value with U87 cells (setting [1]) and in the series on U118 cells (setting [1]) was “selectively sensitized” each time. In addition, the “clonogenic survival / cell killing” value in the series with U87 cells (setting [2]) and in the series with U118 cells (setting [2]) was “dose-dependent clonogenic cell killing” each time. Also, the “tolerability (mouse weight)” value in the series on U87 xenografts (ascorbate 4 g kg^−1 IP daily) is “well tolerated”. Moreover, in the series on U87 xenografts (ascorbate 4 g kg^−1 IP daily + 12 Gy IR/2 fractions + weekly 2.5 mg kg^−1 TMZ), the overall survival result is listed as “significantly increased overall survival”. For the same molecule, the final tumor volume with ARP1 myeloma cells was determined as 50±30 mm3. The “steady-state levels of H2O2 (PeroxyOrange-1)” value in the series on NSCLC cells is listed as “significantly increased from baseline”.
